From patent US20260242416A1, “ANTIMICROBIAL PEPTIDES” (priority 2023, published 2026)
Values after ≈ are worked out from the molar mass of the structure shown. “Also recorded” adds a separate entry of the source. Where a SMILES comes first, the peptide text is derived from it.

Legend:
[1] = system: E. coli ATCC 25922, Salmonella Enteritidis, S. aureus ATCC 29213; experiment: Broth microdilution, panel result (at least one / all strains), Example 2; format: cell-based; set-up: key to inhibitory activity (asterisk): *Indicates inhibitory activity; conditions: Table 14; against at least one of E. coli ATCC 25922, Salmonella Enteritidis, S. aureus ATCC 29213
Summary of the method: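 CLSI broth microdilution adapted for cationic peptides, in MHB with a final inoculum of 2-8×10^5 cfu/mL in polypropylene plates. Peptides were serially diluted from 128 down to 0.5 μg/mL and incubated 20-24 h at 37° C. MIC is the lowest concentration with no visible growth.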

[2] = system: Escherichia coli ATCC 25922; experiment: Antimicrobial susceptibility testing (MIC/MBC), Example 1; format: cell-based; conditions: Table 3; footnote: wild-type Escherichia coli ATCC 29522; minimum of three independent experiments
Protocol: Twenty-one putative AMP sequences identified using the rAMPage pipeline were validated through a minimum of three AST experiments performed independently on separate days. In these tests, the AMP activity was assessed using two metrics: minimum inhibitory concentration and minimum bactericidal concentration (MIC and MBC, respectively). MIC and MBC values were determined using procedures outlined by the Clinical and Laboratory Standards Institute (CLSI), with the recommended adaptations for the testing of cationic AMPs described previously. “Wild-type” strains of Escherichia coli (E. coli 25922) and Staphylococcus aureus (S. aureus 29213) were purchased from the American Type Culture Collection (ATCC; Manassas, VA, USA) and were used for screening of antimicrobial activity. Briefly, putative AMPs were synthesized by Genscript (Piscataway, NJ, USA) and received in lyophilized format. These peptides were suspended using ultrapure water (Life Technologies, Grand Island, NY, USA; Invitrogen cat #10977-015), and an 11 μL two-fold serial dilution of 1280 to 2.5 μg/mL was prepared in duplicate rows in a 96-well microtiter plate, before being combined with 100 μL standardized bacterial inoculum yielding a final duplicate testing range of 128 to 0.25 μg/mL. The bacterial inoculum was prepared using colonies isolated on non-selective agar and combined with Mueller Hinton Broth. This suspension was measured and adjusted to achieve an optical density of 0.08-0.1, equivalent to a 0.5 McFarland standard (1-2×10^8 cfu/mL). The inoculum was then diluted to a target concentration of 5±3×10^5 cfu/mL; total viable counts from the final inoculum were routinely performed to confirm the target bacterial density was achieved. […] The MIC and adjacent wells were plated onto non-selective agar; the concentration in which killed 99.9% of the inoculum following additional overnight incubation was determined to be the MBC.

[3] = system: E. coli ATCC 25922; format: cell-based, Escherichia coli; conditions: for MIC (ug/mL) E. coli: Table 14, first value of the cell, three independent experiments, highest concentration tested 128
Summary of the method: (§1)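 CLSI broth microdilution adapted for cationic peptides, in Mueller-Hinton broth, inoculum 2-8×10^5 cfu/mL. Peptides serially diluted from 128 to 0.5 μg/mL in polypropylene plates, incubated 20-24 h at 37° C. MIC = lowest concentration without visible growth.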

[4] = system: S. aureus ATCC 29213; format: cell-based, Staphylococcus aureus; conditions: Table 14, third value of the cell; three independent experiments; highest concentration tested 128
Summary of the method: as §1

[5] = system: Staphylococcus aureus ATCC 29213; format: cell-based; conditions: Table 3; wild-type Staphylococcus aureus ATCC 29213; minimum of three independent experiments
Protocol: Twenty-one putative AMP sequences identified using the rAMPage pipeline were validated through a minimum of three AST experiments performed independently on separate days. In these tests, the AMP activity was assessed using two metrics: minimum inhibitory concentration and minimum bactericidal concentration (MIC and MBC, respectively). MIC and MBC values were determined using procedures outlined by the Clinical and Laboratory Standards Institute (CLSI), with the recommended adaptations for the testing of cationic AMPs described previously. “Wild-type” strains of Escherichia coli (E. coli 25922) and Staphylococcus aureus (S. aureus 29213) were purchased from the American Type Culture Collection (ATCC; Manassas, VA, USA) and were used for screening of antimicrobial activity. Briefly, putative AMPs were synthesized by Genscript (Piscataway, NJ, USA) and received in lyophilized format. […] This suspension was measured and adjusted to achieve an optical density of 0.08-0.1, equivalent to a 0.5 McFarland standard (1-2×10^8 cfu/mL). […]

[6] = system: Salmonella enterica serovar Enteritidis (human clinical isolate); format: cell-based; conditions: for MIC (ug/mL) S. Enteritidis: Table 14, second value of the cell, three independent experiments, highest concentration tested 128
Summary of the method: as §1

[7] = alamarBlue cell viability assay (cytotoxicity); format: cell-based, human; conditions: human, HEK293 cells, at 128 μg/mL
Protocol: (§2) The human embryonic kidney cell line HEK293 and the corresponding growth media and supplements were purchased from the ATCC. The cells were maintained in Eagle's Minimum Essential Medium (EMEM) supplemented with 10% fetal bovine serum (FBS) and 1% Penicillin-Streptomycin solution and grown in a 5% CO2 incubator at 37° C. […] Cells were incubated overnight to allow them to adhere. […] TX-100 was diluted to 2% in UltraPure deionized water and added as a positive control. Complete growth medium was added to the peptides and TX-100 containing wells. Spent growth medium of wells with adhered cells was replaced with the contents of wells containing serially diluted peptides or TX-100. Cells were incubated for four hours at 37° C. in 5% CO2 incubator. Growth medium containing peptides or TX-100 was replaced with fresh growth medium containing 10% (v/v) alamarBlue (Bio-Rad Laboratories, Hercules, CA, USA) and incubated for 20 h. Fluorescence was measured at excitation of 540 nm and emission of 590 nm in a Cytation 5 plate reader (Agilent BioTek, Winooski, VT, USA) and results recorded and analyzed with Gen5 software (Agilent BioTek, Winooski, VT, USA). The average fluorescence reads of TX-100 and growth media only wells were used to calculate 0% and 100% cell viability, respectively. The percentage of viable cells at each peptide concentration was determined by Formula 1: […]

[8] = system: HEK293 cells; experiment: alamarBlue cell viability assay (cytotoxicity); format: cell-based, human; conditions: concentrations up to 128 μg/mL
Protocol: as §2

[9] = system: porcine red blood cells; experiment: Hemolysis assay (HC50), Example 2; conditions: up to 128 μg/mL
Protocol: Peptides were evaluated for toxicity using three independent hemolysis experiments. Whole blood from healthy donor pigs, supplemented with Na Citrate, was purchased from Lampire Biological Laboratories (Pipersville, PA, USA). Red blood cells (RBCs) were washed and isolated by three centrifugation cycles using Roswell Park Memorial Institute medium (RPMI; Thermo-Fisher Scientific) to create a 1% (v/v) RBC solution. […] Following a minimum 30 min incubation at 37° C., plates were centrifuged and % volume from each supernatant was transferred to a new 96-well plate. The absorbance of these wells was measured at 415 nm. To quantify hemolytic activity and determine the AMP concentration that lyses 50% of the RBCs (HC50), absorbance reading from wells containing RBCs treated with 11 μL of a 2% TritonX-100 detergent solution (TX-100) or RPMI (AMP solvent-only) were used to define 100% and 0% hemolysis, respectively. All centrifugation steps were performed at 500× g for five minutes in an Allegra-6R centrifuge (Beckman Coulter, Brea, CA, USA).

Structure (SMILES)	inhibitory activity (asterisk) [1]	MIC* (μg/mL) E. coli [2]	MIC (ug/mL) E. coli [3]	MIC (ug/mL) S. aureus [4]	MIC* (μg/mL) S. aureus [5]	MIC (ug/mL) S. Enteritidis [6]	cytotoxicity [8]	hemolytic activity [9]	other results
CC[C@H](C)[C@H](NC(=O)[C@H](CCCCN)NC(=O)[C@H](CS)NC(=O)[C@H](CCCCN)NC(=O)[C@H](CC(C)C)NC(=O)[C@H](CC(N)=O)NC(=O)[C@H](Cc1ccc(O)cc1)NC(=O)[C@H](CC(C)C)NC(=O)[C@H](CC(C)C)NC(=O)[C@@H](NC(=O)[C@@H](NC(=O)[C@H](C)NC(=O)[C@@H](NC(=O)[C@H](CC(N)=O)NC(=O)[C@H](CCCCN)NC(=O)[C@H](C)NC(=O)[C@@H](NC(=O)[C@H](CC(N)=O)NC(=O)[C@H](CCCCN)NC(=O)[C@H](C)NC(=O)[C@@H](NC(=O)[C@H](CC(=O)O)NC(=O)[C@H](CCSC)NC(=O)[C@H](Cc1ccccc1)NC(=O)CN)[C@@H](C)O)C(C)C)C(C)C)C(C)C)[C@@H](C)O)C(=O)N[C@H](C(=O)N[C@@H](CCCCN)C(=O)N[C@@H](C)C(=O)N[C@@H](CS)C(=O)O)[C@@H](C)O [OdMa12] (H-GFMDTAKNVAKNVAVTLLYNLKCKITKAC-OH; N-terminus and C-terminus assumed)	69.* GFMDTAKNVAKNVAVTLLYNLKCKITKAC	4 µg⁻¹ mL⁻¹	–	–	–	–	–	–	–
CC[C@H](C)[C@H](NC(=O)CNC(=O)[C@H](C)NC(=O)[C@@H](NC(=O)[C@H](CC(N)=O)NC(=O)[C@H](CCCCN)NC(=O)[C@H](C)NC(=O)[C@H](C)NC(=O)CNC(=O)[C@H](CCCCN)NC(=O)[C@@H](NC(=O)[C@@H](NC(=O)[C@H](CC(=O)O)NC(=O)[C@H](CC(C)C)NC(=O)[C@H](CC(C)C)NC(=O)[C@H](CC(C)C)NC(=O)CN)[C@@H](C)O)C(C)C)C(C)C)C(=O)N[C@@H](CC(C)C)C(=O)N[C@@H](CC(C)C)C(=O)N[C@@H](CC(N)=O)C(=O)N[C@@H](CCCCN)C(=O)N[C@@H](CC(C)C)C(=O)N[C@@H](CCCCN)C(=O)N[C@@H](CS)C(=O)N[C@@H](CCCCN)C(=O)N[C@H](C(=O)N[C@H](C(=O)NCC(=O)N[C@@H](CC(=O)O)C(=O)N[C@@H](CS)C(=O)O)[C@@H](C)O)C(C)C [PeNi10] (H-GLLLDTVKGAAKNVAGILLNKLKCKVTGDC-OH; N-terminus and C-terminus assumed)	1086.* GLLLDTVKGAAKNVAGILLNKLKCKVTGDC	8 µg⁻¹ mL⁻¹	–	–	–	–	–	–	–
CC[C@H](C)[C@H](NC(=O)CN)C(=O)N[C@@H](CC(C)C)C(=O)N[C@H](C(=O)N[C@@H](CC(=O)O)C(=O)N[C@H](C(=O)N[C@@H](CC(C)C)C(=O)N[C@@H](CCCCN)C(=O)NCC(=O)N[C@@H](C)C(=O)N[C@@H](C)C(=O)N[C@@H](CCCCN)C(=O)N[C@@H](CC(N)=O)C(=O)N[C@H](C(=O)N[C@@H](C)C(=O)NCC(=O)N[C@H](C(=O)N[C@@H](CC(C)C)C(=O)N[C@@H](CC(C)C)C(=O)N[C@@H](CC(=O)O)C(=O)N[C@@H](CCCCN)C(=O)N[C@@H](CC(C)C)C(=O)N[C@@H](CCCCN)C(=O)N[C@@H](CS)C(=O)N[C@@H](CCCCN)C(=O)N[C@H](C(=O)N[C@H](C(=O)NCC(=O)NCC(=O)N[C@@H](CS)C(=O)O)[C@@H](C)O)[C@@H](C)CC)C(C)C)C(C)C)[C@@H](C)O)[C@@H](C)O [PeNi11] (H-GILTDTLKGAAKNVAGVLLDKLKCKITGGC-OH; N-terminus and C-terminus assumed)	1087.* GILTDTLKGAAKNVAGVLLDKLKCKITGGC	8 to 16 µg⁻¹ mL⁻¹	–	–	–	–	–	–	–
CC[C@H](C)[C@H](NC(=O)[C@H](CCCCN)NC(=O)[C@H](CC(=O)O)NC(=O)[C@H](CC(C)C)NC(=O)[C@@H](NC(=O)CNC(=O)[C@@H](NC(=O)[C@H](CO)NC(=O)[C@H](Cc1ccccc1)NC(=O)[C@H](CC(N)=O)NC(=O)[C@H](CCCCN)NC(=O)[C@@H](NC(=O)CNC(=O)[C@H](CCC(=O)O)NC(=O)[C@H](CCCCN)NC(=O)[C@@H](NC(=O)[C@@H](NC(=O)[C@@H](NC(=O)[C@H](Cc1c[nH]c2ccccc12)NC(=O)[C@H](CC(C)C)NC(=O)CN)[C@@H](C)O)[C@@H](C)O)[C@@H](C)CC)C(C)C)C(C)C)C(C)C)C(=O)N[C@@H](CCCNC(=N)N)C(=O)N[C@@H](CS)C(=O)N[C@@H](CCCCN)C(=O)N[C@H](C(=O)N[C@H](C(=O)NCC(=O)NCC(=O)N[C@@H](CS)C(=O)O)[C@@H](C)O)[C@@H](C)CC [PeNi14] (H-GLWTTIKEGVKNFSVGVLDKIRCKITGGC-OH; N-terminus and C-terminus assumed)	15.* GLWTTIKEGVKNFSVGVLDKIRCKITGGC	4 to 8 µg⁻¹ mL⁻¹	–	–	–	–	–	–	–
CC[C@H](C)[C@H](NC(=O)[C@@H](N)CCCCN)C(=O)N[C@@H](CCCCN)C(=O)N[C@H](C(=O)N1CCC[C@H]1C(=O)N[C@@H](Cc1c[nH]c2ccccc12)C(=O)NCC(=O)N[C@@H](CCCCN)C(=O)N[C@H](C(=O)N[C@@H](CCCCN)C(=O)N[C@@H](CC(=O)O)C(=O)N[C@@H](Cc1ccccc1)C(=O)N[C@@H](CC(C)C)C(=O)N[C@H](C(=O)NCC(=O)NCC(=O)N[C@@H](CCSC)C(=O)N[C@@H](CCCCN)C(=O)N[C@@H](C)C(=O)N[C@H](C(=O)NCC(=O)N[C@@H](CCCCN)C(=O)N[C@@H](CCCCN)C(=O)O)C(C)C)C(C)C)C(C)C)[C@@H](C)CC [TeBi1] (H-KIKIPWGKVKDFLVGGMKAVGKK-OH)	–	–	1 to 2 µg/mL	4 to 8 µg/mL	2 to 8 µg/mL	4 to 8 µg/mL	low or no cytotoxicity at lower concentrations; also recorded: high levels of cytotoxicity at concentrations higher than their MICs	not hemolytic at the concentrations tested	MIC against E. coli [3]: 1 to 2 µg/mL; viability at 4 h, 128 µg/mL [7]: 40%
CC(C)C[C@H](NC(=O)[C@H](CCCCN)NC(=O)[C@H](CCC(=O)O)NC(=O)[C@H](CC(C)C)NC(=O)[C@H](CCCNC(=N)N)NC(=O)[C@@H](NC(=O)[C@H](Cc1ccc(O)cc1)NC(=O)[C@H](CC(N)=O)NC(=O)[C@H](CCCCN)NC(=O)[C@H](CCCCN)NC(=O)[C@H](CC(N)=O)NC(=O)[C@@H](NC(=O)[C@H](CC(C)C)NC(=O)[C@H](CCCCN)NC(=O)[C@H](CCCCN)NC(=O)[C@@H](NC(=O)[C@H](CO)NC(=O)[C@H](CCCCN)NC(=O)[C@H](CO)NC(=O)[C@H](CC(C)C)NC(=O)[C@H](Cc1c[nH]c2ccccc12)NC(=O)[C@@H](N)CO)C(C)C)C(C)C)[C@@H](C)O)C(=O)N[C@@H](C)C(=O)N[C@@H](CCCCN)C(=O)N[C@@H](CCCCN)C(=O)N[C@@H](CCCCN)C(=O)N[C@@H](CC(C)C)C(=O)N[C@@H](Cc1ccccc1)C(=O)N[C@@H](CC(N)=O)C(=O)N[C@@H](CCC(=O)O)C(=O)O [TeRu4] (H-SWLSKSVKKLVNKKNYTRLEKLAKKKLFNE-OH)	–	–	1 µg/mL (≈ 0.276 µM)	> 128 µg/mL	>128 µg/mL	2 to 4 µg/mL	not to be toxic to HEK293 cells at any of the concentrations tested; also recorded: not toxic against either porcine erythrocytes or HEK293 cells	not hemolytic at the concentrations tested; also recorded: not toxic against either porcine erythrocytes or HEK293 cells	MIC against Salmonella Enteritidis [6]: 2 to 4 µg/mL
